Results reported in patent publication US20260284005A1, “INHIBITING MITOGEN-ACTIVATED PROTEIN (MAP)/ERK KINASE (MEK)1 AND MEK2 AND RELATED METHODS OF TREATMENT” (priority 2023, published 2026).

Tests used:
[1] = tested on: A375 cells; experiment: 3D-TGA; assay type: cell-based; settings: Homo sapiens, A-375, read-out: IC50 in 3D-TGA Encorafenib
Experimental: Cells were seeded in 3D cultures in a black-walled, clear-bottom, non-tissue culture treated, 384-well plate (3000 cells per well) using a 1:1 mixture of BME and a custom media and grown in a humidified incubator with 5% CO2 and 5% O2, which approximates capillary levels for each gas, at 37° C. […] Cells were assessed for cell proliferation using EdU cell proliferation staining. […] Cells were permeabilized with 30 μL of filtered 0.5% Triton X-100 in PBS for 20 minutes at room temperature. Samples were washed twice gently with PBS. Cells were stained utilizing click-iT chemistry by adding 20 μL of staining cocktail containing 2 mM copper sulfate, 8 μM sulfo-Cy5-azide, and 20 mg/ml ascorbic acid in PBS and incubated 30-60 minutes at room temperature in dark. […] Plates were imaged with the Molecular Devices Pico ImageXpress. Images were segmented and percentage of cells with EdU incorporation was quantified to calculate antiproliferative effects of the drugs.
Five (5)-ethynyl-2′-deoxyuridine (EdU) data was represented as percentage EdU positive cells quantified by high content imaging from the Molecular Devices ImageXpress® Pico.

[2] = tested on: HT-29 BRAF^V600E colorectal cancer xenograft; experiment: HT-29 colorectal xenograft tumor model; assay type: in vivo, athymic nude mice; settings: HT-29 BRAFV600E xenograft
Description: An integrated translational platform with integrated bioinformatics utilized patient-aligned model systems was used to identify key factors that help predict response to Compound A and its unique DCI profile.

[3] = tested on: HT-29 cells; experiment: 3D-TGA; assay type: cell-based, human; settings: Homo sapiens, HT-29, read-out: IC50 in 3D-TGA Encorafenib
Method in brief: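 First, 3000 cells per well were embedded 1:1 in BME and custom medium and cultured at 37° C with 5% CO2 and 5% O2. Next, EdU-labelled cells were permeabilized and click-stained with sulfo-Cy5-azide. Finally, imaging quantified EdU incorporation to derive drug effects on proliferation.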

[4] = tested on: LS411N cells; experiment: 3D-TGA; assay type: cell-based; settings: Homo sapiens, LS-411N; LS411N, COL, BRAF V600E; read-out: IC50 in 3D-TGA Encorafenib

Question: For `COC(=O)N[C@@H](C)CNc1nccc(-c2cn(C(C)C)nc2-c2cc(Cl)cc(NS(C)(=O)=O)c2F)n1` [encorafenib], which IC50 [1] is on record?
Answer: < 0.05 µM

Question: And the “tumor growth inhibition, monotherapy” value [2]?
Answer: superior tumor growth inhibition to binimetinib

Question: And the IC50 [3]?
Answer: > 1 µM

Question: What about the IC50 [4] of the same compound?
Answer: > 1 µM
